Read-outs that look alike come from different tables or passages of the source.
Experiments:
[1] = system: cervical carcinoma cell lines; test: Cell based assay, cell viability (CellTiter-Glo), cervical carcinoma cell lines; conditions: Homo sapiens; HeLa cells
[2] = system: brain cancer cell lines; test: Cell based assay, cell viability (CellTiter-Glo), brain cancer cell lines; conditions: Homo sapiens
[3] = system: blood cancer cell lines (e.g. HL-60, Jurkat, Raji, Ramos, Daudi, MOLT-4); test: Cell based assay, cell viability (CellTiter-Glo), blood cancer cell lines; conditions: Homo sapiens
Procedure, shortened: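 Cell lines seeded, cultured 24 hours, then exposed to compound at final 0 to 2 μM. After a further 72 hours, viability measured by ATP-detection luminescence (CellTiter-Glo).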

[4] = system: RT4: human urinary bladder transitional cell papilloma; test: Cell based assay, cytotoxicity in RT4 papilloma cells (selectivity); conditions: Homo sapiens, RT-4; RT4 cells
[5] = U138-MG, U-138 MG cell line, read-out: IC50, Brain cancer cell line U-138 MG
[6] = T98G cell line, read-out: IC50, Brain cancer cell line T98G
[7] = U-251 MG cell line, read-out: IC50, Brain cancer cell line U-251 MG
[8] = MV4-11, blood cancer cell line MV-4-11, 72 hours, read-out: IC50, MV-4-11
[9] = blood cancer cell line Daudi, 72 hours, read-out: IC50, Daudi
[10] = blood cancer cell line HL-60, 72 hours, read-out: IC50, HL-60
[11] = blood cancer cell line Jurkat, 72 hours, read-out: IC50, Jurkat
[12] = blood cancer cell line MOLT-4, 72 hours, read-out: IC50, MOLT-4
[13] = blood cancer cell line Raji, 72 hours, read-out: IC50, Raji
[14] = blood cancer cell line Ramos (RA 1), 72 hours, read-out: IC50, Ramos (RA 1)
[15] = blood cancer cell line U-937, 72 hours, read-out: IC50, U-937

SMILES | IC50 [1] | IC50 [2, 5] | IC50 [2, 6] | IC50 [2, 7] | IC50 [3, 8] | IC50 [3, 9] | IC50 [3, 10] | IC50 [3, 11] | IC50 [3, 12] | IC50 [3, 13] | IC50 [3, 14] | IC50 [3, 15] | IC50 [4]
CSc1c(C(C)=O)c(=O)c2c(Cl)ccc(Br)c2n1C(C)=O [Compound 18, 1,1′-(8-bromo-5-chloro-2-(methylthio)-4-oxoquinoline-1,3(4H)-diyl)bis(ethan-1-one)] | > 10000 nM | > 10000 nM | > 10000 nM | > 2000 nM | > 2000 nM | > 2000 nM | > 2000 nM | > 2000 nM | > 2000 nM | > 2000 nM | > 2000 nM | > 2000 nM | > 10000 nM
CCS(=O)(=O)n1c([S+](C)[O-])c(C(C)=O)c(=O)c2c(Cl)ccc(Br)c21 (centres unmarked) [Compound 39, 3-acetyl-8-bromo-5-chloro-1-(ethylsulfonyl)-2-(methylsulfinyl)quinolin-4(1H)-one] | > 10000 nM | > 10000 nM | > 10000 nM | > 2000 nM | > 2000 nM | > 2000 nM | > 2000 nM | > 2000 nM | > 2000 nM | > 2000 nM | > 2000 nM | > 2000 nM | > 10000 nM
CC(=O)c1c(SCc2ccc(Cl)cc2)[nH]c2c(Br)ccc(Cl)c2c1=O [Compound 10, 3-acetyl-8-bromo-5-chloro-2-((4-chlorobenzyl)thio)quinolin-4(1H)-one] | > 10000 nM | > 10000 nM | > 10000 nM | > 2000 nM | > 2000 nM | > 2000 nM | > 2000 nM | > 2000 nM | > 2000 nM | > 2000 nM | > 2000 nM | > 2000 nM | > 10000 nM
CC(=O)c1c([S+]([O-])Cc2ccc(S(F)(F)(F)(F)F)cc2)[nH]c2c(F)ccc(F)c2c1=O (centres unmarked) [Compound 80, 3-acetyl-5,8-difluoro-2-((4-(pentafluoro--sulfanyl)benzyl)sulfinyl)quinolin-4(1H)-one] | > 10000 nM | > 10000 nM | > 10000 nM | > 2000 nM | > 2000 nM | > 2000 nM | > 2000 nM | > 2000 nM | > 2000 nM | > 2000 nM | > 2000 nM | > 2000 nM | > 10000 nM
CC(=O)c1c([S+]([O-])Cc2cnc3[nH]ccc3c2)[nH]c2c(Br)ccc(Cl)c2c1=O (centres unmarked) [Compound 107, 2-(((1H-pyrrolo[2,3-b]pyridin-5-yl)methyl)sulfinyl)-3-acetyl-8-bromo-5-chloroquinolin-4(1H)-one] | > 2000 nM | > 10000 nM | > 10000 nM | > 2000 nM | > 2000 nM | > 2000 nM | > 2000 nM | > 2000 nM | > 2000 nM | > 2000 nM | > 2000 nM | > 2000 nM | > 10000 nM
COC(=O)c1ccc(C[S+]([O-])c2[nH]c3c(Cl)ccc(Cl)c3c(=O)c2C(C)=O)cc1 (centres unmarked) [Compound 91, methyl 4-(((3-acetyl-5,8-dichloro-4-oxo-1,4-dihydroquinolin-2-yl)sulfinyl)methyl)benzoate] | > 10000 nM | > 2000 nM | > 10000 nM | > 2000 nM | > 2000 nM | > 2000 nM | > 2000 nM | 1730 nM | > 2000 nM | > 2000 nM | > 2000 nM | > 2000 nM | > 10000 nM
CSc1c(C(C)=O)c(=O)c2c(Cl)ccc(Br)c2n1S(=O)(=O)c1ccc(Cl)cc1 [Compound 37, 3-acetyl-8-bromo-5-chloro-1-((4-chlorophenyl)sulfonyl)-2-(methylthio)quinolin-4(1H)-one] | > 10000 nM | > 10000 nM | > 10000 nM | > 2000 nM | > 2000 nM | > 2000 nM | > 2000 nM | > 2000 nM | > 2000 nM | > 2000 nM | > 2000 nM | > 2000 nM | > 10000 nM
CC(=O)c1c(SCc2ccc(F)c(Cl)c2)[nH]c2c(Br)ccc(Cl)c2c1=O [Compound 30, 3-acetyl-8-bromo-5-chloro-2-((3-chloro-4-fluorobenzyl)thio)quinolin-4(1H)-one] | > 10000 nM | > 10000 nM | > 10000 nM | > 2000 nM | > 2000 nM | > 2000 nM | > 2000 nM | > 2000 nM | > 2000 nM | > 2000 nM | > 2000 nM | > 2000 nM | > 10000 nM
CC(=O)c1c([S+](C)[O-])n(C(=O)c2ccc(Br)cc2)c2c(Br)ccc(Cl)c2c1=O (centres unmarked) [Compound 9, 3-acetyl-8-bromo-1-(4-bromobenzoyl)-5-chloro-2-(methylsulfinyl)quinolin-4(1H)-one] | > 10000 nM | 1260 nM | > 10000 nM | > 2000 nM | 1090 nM | 1990 nM | 1200 nM | 1050 nM | 1250 nM | 1140 nM | 1550 nM | 1060 nM | > 10000 nM
CC(=O)c1c([S+]([O-])Cc2ccccc2C#N)[nH]c2c(Br)ccc(Cl)c2c1=O (centres unmarked) [Compound 58, 2-(((3-acetyl-8-bromo-5-chloro-4-oxo-1,4-dihydroquinolin-2-yl)sulfinyl)methyl)benzonitrile] | > 10000 nM | 1460 nM | > 10000 nM | 840 nM | 970 nM | 1980 nM | 870 nM | 990 nM | 1240 nM | 940 nM | 1250 nM | 730 nM | > 10000 nM
CC(=O)c1c([S+]([O-])Cc2ccccc2)n(C(=O)c2ccc(Br)cc2)c2c(Br)ccc(Cl)c2c1=O (centres unmarked) [Compound 20, 3-acetyl-2-(benzylsulfinyl)-8-bromo-1-(4-bromobenzoyl)-5-chloroquinolin-4(1H)-one] | > 10000 nM | > 10000 nM | > 10000 nM | > 2000 nM | > 2000 nM | > 2000 nM | > 2000 nM | > 2000 nM | > 2000 nM | 1180 nM | 1510 nM | > 2000 nM | > 10000 nM
CC(=O)c1c([S+]([O-])Cc2cc(C)on2)[nH]c2c(F)ccc(F)c2c1=O (centres unmarked) [Compound 82, 3-acetyl-5,8-difluoro-2-(((5-methylisoxazol-3-yl)methyl)sulfinyl)quinolin-4(1H)-one] | > 10000 nM | > 2000 nM | > 10000 nM | > 2000 nM | > 2000 nM | > 2000 nM | > 2000 nM | > 2000 nM | > 2000 nM | > 2000 nM | > 2000 nM | > 2000 nM | > 10000 nM
CC(C)C(=O)c1c([S+]([O-])Cc2ccc(SC(F)(F)F)cc2)[nH]c2c(F)ccc(F)c2c1=O (centres unmarked) [Compound 85, 5,8-difluoro-3-isobutyryl-2-((4-((trifluoromethyl)thio)benzyl)sulfinyl)quinolin-4(1H)-one] | > 10000 nM | > 10000 nM | > 10000 nM | > 2000 nM | > 2000 nM | > 2000 nM | > 2000 nM | > 2000 nM | > 2000 nM | > 2000 nM | > 2000 nM | > 2000 nM | > 10000 nM
COc1cccc2[nH]c([S+]([O-])Cc3cc(C)on3)c(C(C)=O)c(=O)c12 (centres unmarked) [Compound 94, 3-acetyl-5-methoxy-2-(((5-methylisoxazol-3-yl)methyl)sulfinyl)quinolin-4(1H)-one] | > 10000 nM | > 2000 nM | > 10000 nM | > 2000 nM | 1380 nM | > 2000 nM | > 2000 nM | > 2000 nM | > 2000 nM | > 2000 nM | > 2000 nM | > 2000 nM | > 10000 nM

Source: patent publication US11464770B2, “Anticancer pharmaceutical composition” (NATIONAL CANCER CENTER, priority 2016, dated 2022)
